We go through 30 compounds from article PMC2970562, “High-Affinity Inhibitors of Human NAD^+-Dependent 15-Hydroxyprostaglandin Dehydrogenase: Mechanisms of Inhibition and Structure-Activity Relationships” (PLoS ONE, 2010).

Assay [1] deals with T1, human 15-PGDH (Homo sapiens, UniProt P15428).
T1 construct: comprising residues 3–256 of the human HPGD gene (GenBank identifier: 1203982); His6 (GHHHHHH, behind the TEV site) (C, cleaved yes); made in house; host or cells: E. coli BL21(DE3)-R3
T1 sequence (P15428 3-256): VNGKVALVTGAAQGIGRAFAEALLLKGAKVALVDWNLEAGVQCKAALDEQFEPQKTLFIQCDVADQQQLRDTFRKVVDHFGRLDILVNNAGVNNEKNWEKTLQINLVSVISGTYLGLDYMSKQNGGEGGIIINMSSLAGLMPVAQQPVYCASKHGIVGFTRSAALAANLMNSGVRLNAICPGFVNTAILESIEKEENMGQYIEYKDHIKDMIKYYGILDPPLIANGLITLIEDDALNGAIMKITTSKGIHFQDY
As to the kind of experiment: Differential scanning fluorimetry (DSF), thermal stabilization. The format is binding. To be noted: 1 µM protein, compound 50 or 250 µM, N/A = no unfolding transition observed in DSF; for ∆Tm [°C] NAD+: with 200 µM NAD+; for ∆Tm [°C] NADH: with 200 µM NADH; for ∆Tm [°C] apo: without cofactor. On the procedure: A correlation between the ΔTm and the inhibitory potency has been shown in a number of protein-ligand systems, particularly for kinases [32]–[34].
Studies to assess the thermal stability of human 15-PGDH in presence of compounds were performed as described previously, with variations. Briefly, the protein was diluted to a final assay concentration of 1 µM in 100 mM Tris buffer pH 8.0, containing 0.01% Tween-20 and 1∶1000 SYPRO orange dye (Invitrogen). […] Compounds were added at a ratio of 1∶5 from appropriate stock solutions in 10% (v/v) DMSO to comprise either 50 or 250 µM final concentrations. Heat denaturation curves were recorded using a RT-PCR instrument (Mx3005p, Agilent) applying a temperature gradient of 2°C/min. […] 2.5 (ftp://ftp.sgc.ox.ac.uk/pub/biophysics) and PRISM 5.0 (GraphPad Software, Inc.).

Assay [2] addresses T1, human 15-PGDH. As to the kind of experiment: qHTS and 24-point re-test: fluorescence assay of NAD+ reduction to NADH on PGE2 oxidation (PubChem AID 894). Type of assay: biochemical. On the procedure: The assay was miniaturized to a 4-µL volume in 1536-well format: enzyme (3 µL) was dispensed first, followed by a pintool transfer of library compounds dissolved in DMSO. After equilibration, a substrate dispense (1 µL) initiated the enzymatic reaction (see Materials and Methods, for detailed protocol description). […] Hits associated with low-efficacy (<40% maximum inhibition), incomplete curves, as well as those displaying only a single-point inhibition at the top concentration tested were eliminated from further consideration. Similarly, the collection of real-time kinetic data allowed the autofluorescence of each compound to be evaluated by comparing the initial fluorescence read at top concentration with the mean value of uninhibited assay controls: compounds whose top-concentration initial well fluorescence exceeded six standard deviations over the mean were flagged as potential autofluorescent artifacts, [28] (see example in supplementary information Figure S1E). The complete screening and followup results are available in PubChem (PubChem Assay ID 894).
The enzymatic reaction was performed in 50 mM Tris-HCl pH 8.0, containing 0.01% Tween 20. […] The high-throughput screen was performed on a fully integrated robotic system (Kalypsys Inc, San Diego, CA) as described elsewhere. Library compounds, arrayed as seven-point inter-plate concentration series, were screened from the lowest (3.5 nM) to the highest (57.5 µM) concentration, with plates containing DMSO only, serving to note any systematic drifts in the signal, interspersed evenly throughout the screen (approximately every 50 plates). Briefly, 3 µL of reagents were dispensed into 1536-well Greiner black solid-bottom assay plates using integrated nanoliter solenoid-technology dispensers. Compounds and controls (23 nL) were transferred via Kalypsys pintool equipped with 1,536-pin array (10-nL slotted pins; V&P Scientific, Palo Alto, CA). After a 15-minute incubation (to allow for interaction between compound and enzyme), a 1-µL substrate addition step initiated the reaction. Kinetic data were collected on a ViewLux High-throughput CCD imager (Perkin-Elmer) equipped with standard UV fluorescence optics (exc. 340 nm, em. 450 nm).
Starting fluorescence intensity and the change in fluorescence over the two-minute initial rate period were recorded for every well. Screening data were normalized against no-enzyme (64 wells, columns 3 and 4) and no-compound (32 wells located in column 1) controls, and concentration-response relationships were derived as described previously. A four-parameter Hill equation [47] was fitted to the concentration-response data using publicly available algorithms (http://www.ncgc.nih.gov/pub/openhts/curvefit/).
(qHTS replaces the single test concentration by a dilution series.)

The mark [3] stands for this setting: potency in 24-point titrations on re-test, 20 nM 15-PGDH, 1 mM NAD+, 30 µM PGE2, pH 8.0, read-out: qHTS IC50.

Read-outs that look alike come from different tables or passages of the source.

Broadly, the IC50 is the concentration that inhibits the measured activity by half.

Regarding `O=C(c1ccc(N2C(=O)C3CC=C(Cl)CC3C2=O)cc1)N1CCCCC1` (stereo not drawn) [Compound 1], at human 15-PGDH [1], the “∆Tm [°C] NAD+” value was 3.0 °C, the “∆Tm [°C] NADH” value stood at 6.1 °C and the “∆Tm [°C] apo” value is -0.1 °C. Further, the IC50 on human 15-PGDH [2] (setting [3]) worked out at 0.251 µM.
For `C=C(C(=O)OC)C1CCC2(C)C(OC(=O)C(Cc3ccc(O)cc3)OC(=O)C(O)C(C)C)CCC(O)(COC3OC(CO)C(O)C(O)C3O)C2C1O` (stereo not drawn) [Compound 2], in that order: 1.7 °C, 6.0 °C, -0.6 °C and 0.794 µM.
As to `CCCCCCOCCCCc1ccc(-c2ccc(OCCCCCCC3CC3)nc2)nn1` [Compound 3], on human 15-PGDH [1], the “∆Tm [°C] NAD+” value worked out at 2.1 °C, the “∆Tm [°C] NADH” value was determined as 6.7 °C and the “∆Tm [°C] apo” value was -0.6 °C. In addition, the IC50 at human 15-PGDH [2] (setting [3]) worked out at 0.562 µM.
For `COc1ccccc1C(=O)Nc1ccc(C(=O)N2CCCC2)cc1` [Compound 4], in that order: 2.2 °C, 4.7 °C, 0.3 °C and 1 µM.
In the case of `CC1CCN(C(=O)c2ccc(CSc3ccc(Cl)cc3)cc2)CC1` [Compound 5], at human 15-PGDH [1], the “∆Tm [°C] NAD+” value was 2.3 °C, the “∆Tm [°C] NADH” value turned out to be 7.1 °C and the “∆Tm [°C] apo” value was -0.8 °C. Moreover, the IC50 on human 15-PGDH [2] (read-out: qHTS IC50) stood at 0.631 µM.
As to `O=C(c1ccc(COc2ccccc2Br)cc1)N1CCCCC1` [Compound 7], at human 15-PGDH [1], the “∆Tm [°C] NAD+” value was determined as 7.1 °C, the “∆Tm [°C] NADH” value stood at 10.6 °C and the “∆Tm [°C] apo” value is -0.1 °C. Besides, the IC50 at human 15-PGDH [2] (read-out: qHTS IC50) turned out to be 0.089 µM.
Regarding `C=CCN1C(=O)[C@@H](CC(=O)Nc2cc(C)ccc2C)SC1=Nc1cc(C)cc(C)c1` [Compound 8], on human 15-PGDH [1], the “∆Tm [°C] NAD+” value was 3.0 °C, the “∆Tm [°C] NADH” value is 6.6 °C and the “∆Tm [°C] apo” value is -1.4 °C. Besides, on human 15-PGDH [2] (setting [3]), the IC50 came to 0.2 µM.
Take `O=C(O)CC1(CO)CC1` [Compound 9]: at human 15-PGDH [1], the “∆Tm [°C] NAD+” value was 2.2 °C, the “∆Tm [°C] NADH” value was determined as 7.8 °C and the “∆Tm [°C] apo” value was -1.1 °C. For the same compound, at human 15-PGDH [2] (setting [3]), the IC50 was 0.224 µM.
For `CC1CCCN(C(=O)c2ccc(COc3ccccc3Br)cc2)C1` (stereo not drawn) [Compound 11], in that order: 3.8 °C, 10.6 °C, -0.4 °C and 0.126 µM.
Turning to `CN(Cc1cccc(Cl)c1)c1ccc(S(C)(=O)=O)cc1S(C)(=O)=O` [Compound 12], on human 15-PGDH [1], the “∆Tm [°C] NAD+” value was 2.2 °C, the “∆Tm [°C] NADH” value is 7.1 °C and the “∆Tm [°C] apo” value is -1.6 °C. The IC50 at human 15-PGDH [2] (setting [3]) was 0.355 µM.
For `C=CCOC12Oc3ccc(Oc4ccc(OC)c(C=O)c4)cc3C3C(CCCCO)C(CCCCO)C=C(C(=NOCC)CC1N(CCC)C(=O)OCCOCc1ccccc1)C32` (stereo not drawn) [Compound 14], at human 15-PGDH [1], the “∆Tm [°C] NAD+” value came to 3.2 °C, the “∆Tm [°C] NADH” value was 7.8 °C and the “∆Tm [°C] apo” value is -1.0 °C. Moreover, on human 15-PGDH [2] (setting [3]), the IC50 was determined as 0.251 µM.
Turning to `Cc1cc(NC(=O)COC(=O)c2cccc(S(=O)(=O)NC(C)(C)C)c2)no1` [Compound 16], on human 15-PGDH [1], the “∆Tm [°C] NAD+” value is 3.5 °C, the “∆Tm [°C] NADH” value amounted to 7.8 °C and the “∆Tm [°C] apo” value was -1.8 °C. In addition, on human 15-PGDH [2] (setting [3]), the IC50 worked out at 0.224 µM.
Regarding `C[C@H]1CCCCN1C(=O)CSc1nnc(-c2ccccc2F)o1` [Compound 17], at human 15-PGDH [1], the “∆Tm [°C] NAD+” value worked out at 3.3 °C, the “∆Tm [°C] NADH” value amounted to 4.4 °C and the “∆Tm [°C] apo” value was 0.1 °C. Besides, the IC50 on human 15-PGDH [2] (setting [3]) stood at 0.708 µM.
In the case of `Cc1ccccc1C(=O)N1CCc2ccccc2C1` [Compound 18], on human 15-PGDH [1], the “∆Tm [°C] NAD+” value stood at 1.5 °C, the “∆Tm [°C] NADH” value is 2.2 °C and the “∆Tm [°C] apo” value is -1.1 °C. Also, the IC50 at human 15-PGDH [2] (setting [3]) was 2.51 µM.
Consider `COC(=O)c1cc(CNC(=O)C2(c3ccc(Cl)cc3)CC2)ccc1OC` [Compound 20], for which, at human 15-PGDH [1], the “∆Tm [°C] NAD+” value worked out at 3.1 °C, the “∆Tm [°C] NADH” value is 7.9 °C and the “∆Tm [°C] apo” value amounted to 0.3 °C. Besides, on human 15-PGDH [2] (setting [3]), the IC50 turned out to be 0.224 µM.
For `CCCC(NC(=O)Cn1c(-c2cccs2)n[nH]c1=S)c1ccccc1` (stereo not drawn) [Compound 23], in that order: 1.2 °C, 1.6 °C, -0.4 °C and 2.24 µM.
Regarding `CN(C)C(=O)C(NCCc1c[nH]c2ccccc12)c1ccccc1` (stereo not drawn) [Compound 29], on human 15-PGDH [1], the “∆Tm [°C] NAD+” value came to 2.7 °C, the “∆Tm [°C] NADH” value was 8.4 °C and the “∆Tm [°C] apo” value is -0.1 °C. In addition, the IC50 on human 15-PGDH [2] (setting [3]) came out at 0.501 µM.
Regarding `COc1ccccc1NS(=O)(=O)c1cc(C(=O)N2CCC2)ccc1C` [Compound 30], at human 15-PGDH [1], the “∆Tm [°C] NAD+” value is 2.4 °C, the “∆Tm [°C] NADH” value was 6.4 °C and the “∆Tm [°C] apo” value was determined as 0.2 °C. Moreover, at human 15-PGDH [2] (setting [3]), the IC50 stood at 0.562 µM.
For `CCCCCCCCNCCOCCOCCOCCOCCNCCCCCCCC` [Compound 31], at human 15-PGDH [1], the “∆Tm [°C] NAD+” value worked out at 1.1 °C, the “∆Tm [°C] NADH” value stood at 4.8 °C and the “∆Tm [°C] apo” value was -0.1 °C. The IC50 on human 15-PGDH [2] (setting [3]) was 3.98 µM.
The like results for `CCCC(C(=O)O)C(C)(C)O` (stereo not drawn) [Compound 32] were, in that order, 3.9 °C, 9.6 °C, -1.4 °C and 0.282 µM.
As for `CCCC(CCCCCCC(=O)c1cn(CCCC(=O)OCC)c2ccccc12)c1ccc(CC(C)C)cc1` (stereo not drawn) [Compound 34], at human 15-PGDH [1], the “∆Tm [°C] NAD+” value is 2.0 °C, the “∆Tm [°C] NADH” value was 6.4 °C and the “∆Tm [°C] apo” value stood at 0.1 °C. In addition, the concentration for half-maximal inhibition (IC50) on human 15-PGDH [2] (setting [3]) was 0.794 µM.
The like results for `COc1ccc(C2C(C(=O)O)c3ccccc3C(=O)N2Cc2ccccc2)cc1` (stereo not drawn) [Compound 35] were, in that order, 1.2 °C, 2.2 °C, -0.1 °C and 7.08 µM.
In the case of `Cc1ccc(NC(=O)COc2cccc(C=C(C#N)C(=O)Nc3cccc(Cl)c3C)c2)cc1C` [Compound 77], the IC50 at human 15-PGDH [2] (setting [3]) amounted to 14.1 µM.
In the case of `COc1ccc(/C=C2\SC(=O)N(CCNC(=O)c3ccc(Br)o3)C2=O)cc1OC` [Compound 81], the IC50 at human 15-PGDH [2] (setting [3]) was found to be 1.58 µM.
Regarding `CN1CCCc2cccc(C[S+]([O-])c3ncc[nH]3)c21` (stereo not drawn) [Compound 82], on human 15-PGDH [2] (setting [3]), the IC50 worked out at 0.501 µM.
Still for that read-out and setting: the same measure for `CC(C)CC=NCCCCCCN=CCC(C)C` [Compound 83]: 1.26 µM; for `COc1ccc(C(=O)c2ccccc2O)c(O)c1` [Compound 85]: 1 µM.
With `O=c1oc2c(O)c(O)cc3c(=O)oc4c(O)c(O)cc1c4c23` [Compound 86], the IC50 at human 15-PGDH [2] (setting [3]) came out at 0.045 µM.
As to `CC1(C)Oc2c(N=C=O)ccc(Cl)c2C1=O` [Compound 87], the IC50 at human 15-PGDH [2] (setting [3]) is 3.16 µM.
For `O=C1Nc2ccc(I)cc2/C1=C/c1cc(Br)c(O)c(Br)c1` [GW5074, reference compound], on human 15-PGDH [2] (control inhibitor, 16-point dilution series in duplicate on every qHTS plate, read-out: average IC50), the IC50 came out at 10.4 µM.
